In assay [1] the target is T1, Membrane-associated tyrosine- and threonine-specific cdc2-inhibitory kinase (Homo sapiens) (UniProt Q99640).
T1 sequence (whole entry): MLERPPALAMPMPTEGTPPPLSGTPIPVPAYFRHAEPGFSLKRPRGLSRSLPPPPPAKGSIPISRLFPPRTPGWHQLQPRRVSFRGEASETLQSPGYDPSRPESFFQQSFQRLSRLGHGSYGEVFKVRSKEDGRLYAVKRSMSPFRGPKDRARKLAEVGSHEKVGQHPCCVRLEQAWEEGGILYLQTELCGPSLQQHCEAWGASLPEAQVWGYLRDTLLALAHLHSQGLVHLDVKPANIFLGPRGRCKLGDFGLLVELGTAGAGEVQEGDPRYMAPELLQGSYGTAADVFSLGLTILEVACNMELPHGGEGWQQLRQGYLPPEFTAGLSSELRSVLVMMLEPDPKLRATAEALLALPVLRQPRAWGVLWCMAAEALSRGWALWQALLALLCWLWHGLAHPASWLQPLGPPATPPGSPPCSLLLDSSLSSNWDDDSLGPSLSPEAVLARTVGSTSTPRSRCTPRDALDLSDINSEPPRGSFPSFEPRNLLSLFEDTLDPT
Briefly: Inhibition of PKMYT1 (unknown origin) assessed as residual activity at 1000 nM by KINOMEscan analysis relative to control.

Assay [2] has as its target T2, Serine/threonine-protein kinase PLK4 (Homo sapiens) (UniProt O00444).
T2 sequence (whole entry): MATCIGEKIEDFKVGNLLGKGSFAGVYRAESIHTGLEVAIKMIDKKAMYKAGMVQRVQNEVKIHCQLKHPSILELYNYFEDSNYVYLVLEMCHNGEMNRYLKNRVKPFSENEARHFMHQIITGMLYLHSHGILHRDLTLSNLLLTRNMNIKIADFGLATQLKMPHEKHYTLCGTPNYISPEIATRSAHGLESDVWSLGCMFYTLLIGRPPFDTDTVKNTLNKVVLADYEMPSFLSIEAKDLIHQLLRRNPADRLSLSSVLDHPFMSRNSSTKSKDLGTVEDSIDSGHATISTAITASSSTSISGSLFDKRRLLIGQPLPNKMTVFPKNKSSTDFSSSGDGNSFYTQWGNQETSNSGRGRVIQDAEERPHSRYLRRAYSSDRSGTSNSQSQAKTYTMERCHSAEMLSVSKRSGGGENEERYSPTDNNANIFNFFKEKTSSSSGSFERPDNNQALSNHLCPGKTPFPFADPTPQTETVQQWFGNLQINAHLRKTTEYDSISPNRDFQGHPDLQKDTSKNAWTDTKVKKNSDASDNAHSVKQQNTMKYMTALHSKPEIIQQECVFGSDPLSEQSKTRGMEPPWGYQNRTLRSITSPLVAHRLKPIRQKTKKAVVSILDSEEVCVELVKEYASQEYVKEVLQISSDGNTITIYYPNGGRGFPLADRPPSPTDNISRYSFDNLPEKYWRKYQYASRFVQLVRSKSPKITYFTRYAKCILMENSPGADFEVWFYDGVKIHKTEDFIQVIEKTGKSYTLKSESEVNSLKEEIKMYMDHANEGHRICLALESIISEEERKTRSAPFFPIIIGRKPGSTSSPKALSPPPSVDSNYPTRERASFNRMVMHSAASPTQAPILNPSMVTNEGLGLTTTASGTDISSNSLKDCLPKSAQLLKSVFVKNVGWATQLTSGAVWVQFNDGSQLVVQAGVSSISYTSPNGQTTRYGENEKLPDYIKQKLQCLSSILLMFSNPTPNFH
In words: Inhibition of PLK4 (unknown origin) assessed as residual activity at 1000 nM by KINOMEscan analysis relative to control.

Assay [3] concerns the target T3, Mitogen-activated protein kinase kinase kinase 19 (Homo sapiens) (UniProt Q56UN5).
T3 sequence (whole entry): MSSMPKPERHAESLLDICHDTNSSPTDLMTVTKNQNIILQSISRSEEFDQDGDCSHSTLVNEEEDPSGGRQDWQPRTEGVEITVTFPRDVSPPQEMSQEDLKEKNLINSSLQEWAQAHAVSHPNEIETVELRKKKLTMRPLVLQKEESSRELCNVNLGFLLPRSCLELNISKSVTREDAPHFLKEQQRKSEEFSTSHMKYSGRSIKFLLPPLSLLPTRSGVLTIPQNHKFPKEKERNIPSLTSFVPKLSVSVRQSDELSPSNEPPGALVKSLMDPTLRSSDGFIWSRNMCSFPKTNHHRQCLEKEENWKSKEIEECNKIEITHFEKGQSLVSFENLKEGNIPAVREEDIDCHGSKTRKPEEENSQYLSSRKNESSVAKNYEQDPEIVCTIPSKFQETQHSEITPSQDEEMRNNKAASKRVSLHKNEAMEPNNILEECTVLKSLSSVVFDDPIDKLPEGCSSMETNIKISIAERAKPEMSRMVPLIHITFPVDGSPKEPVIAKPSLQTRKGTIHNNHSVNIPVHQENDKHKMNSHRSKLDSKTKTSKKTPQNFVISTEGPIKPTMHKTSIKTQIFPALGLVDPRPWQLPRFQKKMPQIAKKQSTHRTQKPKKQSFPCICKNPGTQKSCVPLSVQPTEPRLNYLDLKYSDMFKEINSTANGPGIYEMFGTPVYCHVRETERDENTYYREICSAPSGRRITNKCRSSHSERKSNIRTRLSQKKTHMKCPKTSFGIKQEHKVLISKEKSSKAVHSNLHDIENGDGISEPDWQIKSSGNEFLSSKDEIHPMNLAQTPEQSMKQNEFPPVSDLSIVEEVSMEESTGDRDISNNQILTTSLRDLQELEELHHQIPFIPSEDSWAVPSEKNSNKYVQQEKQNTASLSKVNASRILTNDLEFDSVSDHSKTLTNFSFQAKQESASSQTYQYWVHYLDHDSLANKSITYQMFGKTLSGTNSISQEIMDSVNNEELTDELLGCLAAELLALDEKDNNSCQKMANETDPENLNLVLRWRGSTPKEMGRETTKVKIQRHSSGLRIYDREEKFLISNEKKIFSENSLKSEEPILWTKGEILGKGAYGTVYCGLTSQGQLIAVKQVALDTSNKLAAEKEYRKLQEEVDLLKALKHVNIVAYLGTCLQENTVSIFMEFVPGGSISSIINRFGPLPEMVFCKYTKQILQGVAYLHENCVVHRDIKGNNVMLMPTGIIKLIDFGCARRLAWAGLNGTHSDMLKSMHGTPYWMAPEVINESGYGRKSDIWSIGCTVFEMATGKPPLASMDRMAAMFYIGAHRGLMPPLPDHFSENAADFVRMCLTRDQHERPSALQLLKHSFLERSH
Briefly: Inhibition of YSK4 (unknown origin) assessed as residual activity at 1000 nM by KINOMEscan analysis relative to control.

The structures appear in SMILES notation.

Consider two compounds from ChEMBL document CHEMBL5678818, “Discovery of potent SOS1 inhibitors that block RAS activation via disruption of the RAS-SOS1 interaction” (Proc Natl Acad Sci U S A, 2019).

Take `COc1cc2nc(C)nc(N[C@H](C)c3cccc(-c4cn[nH]c4)c3)c2cc1OC`: the Activity is 53% in assay [1], 100% in assay [2] and 84% in assay [3].
For `COc1cc2ncnc(N[C@H](C)c3cccc4ccccc34)c2cc1OC`, in that order: 100%, 96% and 90%.
